Test results taken from patent US20080249028A1, “Thyrotropin-Releasing Hormone Analogs and Method of Use” (Roger Williams Hospital, priority 2005, published 2008).

System: STZ-induced hyperglycemic rats
Assay: Effect on STZ-induced hyperglycemia in rats (blood glucose level)
Type: in vivo, rat
Conditions: Tables 2-3, rats
Procedure: Male Sprague-Dawley rats (S.D. 180 g) were used in the experiments described below. The animals lived in individual metabolism cages with free access to food and water, while food and body weight were monitored daily. Peripheral blood samples (approximately 10 μl) were obtained from the tail vein of the animals. The blood glucose levels were measured by using Accu-Check Blood Glucose Meter (Roche Diagnosetics Corporation, IN). Beta cell function was evaluated once every two days over a 2-week period by an individual unaware of the treatment group. Animals were evaluated separately for blood glucose level, food intake and body weight. The endpoint check was pancreatic insulin content and pancreatic beta cell number.
Streptozotocin (STZ) was used to chemically induce damage in pancreatic function in order to create a hyperglycemic state in the animals. Eight-week old male Sprague-Dawley rats (200.00 g±10 g) were injected with STZ by intraperitoneal (i.p.) (65 mg/kg body weight (BW)) to create hyperglycemic animals (24 to 48 hours). Blood glucose levels were monitored daily. Onset of hyperglycemia occurred usually about 24 to 48 hours after STZ administration.
[…] the seventh day or on the third day after STZ administration, which allowed for examination of the TRH/TRH analog treatment and the degree of pancreatic damage in the diabetic animal. Again, food intake, body weight and blood glucose levels of each of the animals were monitored. When hyperglycemia was determined to be reversed by TRH/TRH analog, the animal was sacrificed. Blood samples were collected for insulin assay and the pancreas and muscles were collected for further pathological and physiological tests.
The figures shown in the tables are blood glucose levels (mg/dL; i.e., milligrams of glucose per deciliter of blood).

## NC(=O)C1CCCN1C(=O)C(Cc1c[nH]cn1)NC(=O)C(N)CCC(=O)O (stereo not shown) [GluT, 4-Amino-4-[2-(2-carbamoyl-pyrrolidin-1-yl)-1-(1H-imidazol-4-ylmethyl)-2-oxo-ethylcarbamoyl]-butyric acid]
STZ + compound 5 µg/kg, Day 1
  blood glucose level: 94 mg/dL
STZ + compound 5 µg/kg, Day 4
  blood glucose level: 98 mg/dL
STZ + compound 5 µg/kg, Day 7
  blood glucose level: 466 mg/dL
STZ + compound 5 µg/kg, Day 11
  blood glucose level: 457 mg/dL
STZ + compound 5 µg/kg, Day 15
  blood glucose level: 186 mg/dL
STZ + compound 5 µg/kg, Day 18
  blood glucose level: 215 mg/dL
STZ + compound 5 µg/kg, Day 21
  blood glucose level: 213 mg/dL
STZ + compound 5 µg/kg, Day 25
  blood glucose level: 173 mg/dL
STZ + compound 5 µg/kg, Day 28
  blood glucose level: 369 mg/dL
STZ + compound 5 µg/kg, Day 32
  blood glucose level: 342 mg/dL
STZ + compound 5 µg/kg, Day 35
  blood glucose level: 336 mg/dL
STZ + compound 5 µg/kg, Day 39
  blood glucose level: 376 mg/dL
STZ + compound 5 µg/kg, Day 42
  blood glucose level: 390 mg/dL
STZ + compound 5 µg/kg, Day 46
  blood glucose level: 317 mg/dL
STZ + compound 5 µg/kg, Day 54
  blood glucose level: 260 mg/dL
STZ + compound 5 µg/kg, Day 61
  blood glucose level: 324 mg/dL
STZ + compound 10 µg/kg, Day 1
  blood glucose level: 103 mg/dL
STZ + compound 10 µg/kg, Day 4
  blood glucose level: 99 mg/dL
STZ + compound 10 µg/kg, Day 7
  blood glucose level: 415 mg/dL
STZ + compound 10 µg/kg, Day 11
  blood glucose level: 477 mg/dL
STZ + compound 10 µg/kg, Day 15
  blood glucose level: 117 mg/dL
STZ + compound 10 µg/kg, Day 18
  blood glucose level: 125 mg/dL
STZ + compound 10 µg/kg, Day 21
  blood glucose level: 103 mg/dL
STZ + compound 10 µg/kg, Day 25
  blood glucose level: 102 mg/dL
STZ + compound 10 µg/kg, Day 28
  blood glucose level: 429 mg/dL
STZ + compound 10 µg/kg, Day 32
  blood glucose level: 111 mg/dL
STZ + compound 10 µg/kg, Day 35
  blood glucose level: 128 mg/dL
STZ + compound 10 µg/kg, Day 39
  blood glucose level: 252 mg/dL
STZ + compound 10 µg/kg, Day 42
  blood glucose level: 224 mg/dL
STZ + compound 10 µg/kg, Day 46
  blood glucose level: 289 mg/dL
STZ + compound 10 µg/kg, Day 54
  blood glucose level: 255 mg/dL
STZ + compound 10 µg/kg, Day 61
  blood glucose level: 218 mg/dL
STZ + compound 20 µg/kg, Day 1
  blood glucose level: 103 mg/dL
STZ + compound 20 µg/kg, Day 4
  blood glucose level: 98 mg/dL
STZ + compound 20 µg/kg, Day 7
  blood glucose level: 461 mg/dL
STZ + compound 20 µg/kg, Day 11
  blood glucose level: 502 mg/dL
STZ + compound 20 µg/kg, Day 15
  blood glucose level: 266 mg/dL
STZ + compound 20 µg/kg, Day 18
  blood glucose level: 263 mg/dL
STZ + compound 20 µg/kg, Day 21
  blood glucose level: 382 mg/dL
STZ + compound 20 µg/kg, Day 25
  blood glucose level: 345 mg/dL
STZ + compound 20 µg/kg, Day 28
  blood glucose level: 496 mg/dL
STZ + compound 20 µg/kg, Day 32
  blood glucose level: 468 mg/dL
STZ + compound 20 µg/kg, Day 35
  blood glucose level: 485 mg/dL
STZ + compound 20 µg/kg, Day 39
  blood glucose level: 477 mg/dL
STZ + compound 20 µg/kg, Day 42
  blood glucose level: 457 mg/dL
STZ + compound 20 µg/kg, Day 46
  blood glucose level: 487 mg/dL
STZ + compound 20 µg/kg, Day 54
  blood glucose level: 389 mg/dL
STZ + compound 20 µg/kg, Day 61
  blood glucose level: 452 mg/dL
STZ + compound 40 µg/kg, Day 1
  blood glucose level: 105 mg/dL
STZ + compound 40 µg/kg, Day 4
  blood glucose level: 99 mg/dL
STZ + compound 40 µg/kg, Day 7
  blood glucose level: 548 mg/dL
STZ + compound 40 µg/kg, Day 11
  blood glucose level: 568 mg/dL
STZ + compound 40 µg/kg, Day 15
  blood glucose level: 327 mg/dL
STZ + compound 40 µg/kg, Day 18
  blood glucose level: 405 mg/dL
STZ + compound 40 µg/kg, Day 21
  blood glucose level: 472 mg/dL
STZ + compound 40 µg/kg, Day 25
  blood glucose level: 455 mg/dL
STZ + compound 40 µg/kg, Day 28
  blood glucose level: 514 mg/dL
STZ + compound 40 µg/kg, Day 32
  blood glucose level: 543 mg/dL
STZ + compound 40 µg/kg, Day 35
  blood glucose level: 507 mg/dL
STZ + compound 40 µg/kg, Day 39
  blood glucose level: 589 mg/dL
STZ + compound 40 µg/kg, Day 42
  blood glucose level: 592 mg/dL
STZ + compound 40 µg/kg, Day 46
  blood glucose level: 609 mg/dL
STZ + compound 40 µg/kg, Day 54
  blood glucose level: 531 mg/dL
STZ + compound 40 µg/kg, Day 61
  blood glucose level: 413 mg/dL
